Test results taken from ChEMBL document CHEMBL6134930, “Discovery of AB801, a Potent and Selective Inhibitor of AXL Receptor Tyrosine Kinase for Use in Cancer Therapy” (J Med Chem, 2025).
pIC50: −log10 of the molar value.

Experiments:
[1] = biological target: T1, Tyrosine-protein kinase receptor UFO (Homo sapiens, UniProt P30530); assay: Inhibition of human AXL measured after 150 mins by ATP-competitive HTRF based biochemical assay
T1 sequence (P30530 whole entry): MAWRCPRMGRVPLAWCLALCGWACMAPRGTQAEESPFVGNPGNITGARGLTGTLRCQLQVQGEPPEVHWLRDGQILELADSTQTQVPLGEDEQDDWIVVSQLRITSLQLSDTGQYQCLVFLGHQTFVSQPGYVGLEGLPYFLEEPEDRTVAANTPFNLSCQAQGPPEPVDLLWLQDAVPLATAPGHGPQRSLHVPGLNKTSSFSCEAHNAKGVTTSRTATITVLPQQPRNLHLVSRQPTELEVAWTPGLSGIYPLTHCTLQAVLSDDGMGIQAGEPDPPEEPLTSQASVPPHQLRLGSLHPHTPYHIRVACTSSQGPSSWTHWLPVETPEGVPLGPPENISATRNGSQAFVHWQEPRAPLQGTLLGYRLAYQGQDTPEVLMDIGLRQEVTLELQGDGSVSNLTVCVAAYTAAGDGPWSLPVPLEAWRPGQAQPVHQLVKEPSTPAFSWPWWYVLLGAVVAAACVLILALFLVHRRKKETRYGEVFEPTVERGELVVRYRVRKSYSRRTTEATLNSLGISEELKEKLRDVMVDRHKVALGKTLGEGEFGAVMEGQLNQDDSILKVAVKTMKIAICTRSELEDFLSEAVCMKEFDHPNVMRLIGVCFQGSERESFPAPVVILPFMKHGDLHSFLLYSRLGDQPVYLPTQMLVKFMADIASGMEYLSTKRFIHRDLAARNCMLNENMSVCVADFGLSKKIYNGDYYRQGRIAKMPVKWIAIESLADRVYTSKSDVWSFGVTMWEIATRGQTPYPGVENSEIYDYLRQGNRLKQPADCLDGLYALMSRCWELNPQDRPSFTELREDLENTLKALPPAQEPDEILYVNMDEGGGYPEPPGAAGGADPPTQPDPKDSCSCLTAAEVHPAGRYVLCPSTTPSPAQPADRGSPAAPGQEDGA

[2] = biological target: T1, Tyrosine-protein kinase receptor UFO; assay: Inhibition of autophosphorylation AXL (unknown origin) expressed in HEK293 cells assessed as NanoLuc activity associated with phosphorylated proteins measured after 1 hr incubation by intracellular pAXL-ELISA; format: cell-based
[3] = Clearance in Sprague-Dawley rat at 0.5 mg/kg, iv measured up to 24 hrs by LC-MS/MS analysis; format: ADME, organism-based; settings: in vivo
[4] = biological target: CYP2D6 (Homo sapiens, UniProt P10635); assay: Time dependent inhibition of CYP2D6 (unknown origin) at 30 uM measured after 30 mins relative to control; format: ADME; settings: read-out: TDI
Chain of CYP2D6 (P10635 whole entry): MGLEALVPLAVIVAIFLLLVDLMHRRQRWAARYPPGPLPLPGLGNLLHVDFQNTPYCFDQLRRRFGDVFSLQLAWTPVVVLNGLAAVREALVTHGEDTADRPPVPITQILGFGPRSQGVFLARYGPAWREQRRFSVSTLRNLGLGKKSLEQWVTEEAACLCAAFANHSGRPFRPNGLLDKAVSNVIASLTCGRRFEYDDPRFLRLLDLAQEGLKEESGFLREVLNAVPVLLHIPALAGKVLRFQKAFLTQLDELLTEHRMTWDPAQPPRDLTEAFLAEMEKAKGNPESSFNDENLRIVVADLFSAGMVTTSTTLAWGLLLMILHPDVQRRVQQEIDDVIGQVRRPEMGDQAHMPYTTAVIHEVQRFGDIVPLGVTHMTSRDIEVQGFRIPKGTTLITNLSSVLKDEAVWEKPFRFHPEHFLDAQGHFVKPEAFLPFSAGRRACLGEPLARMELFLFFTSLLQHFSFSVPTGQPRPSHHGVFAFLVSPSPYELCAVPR

[5] = biological target: Cytochrome P450 3A4 (Homo sapiens, UniProt P08684); assay: Inhibition of CYP3A4 (unknown origin) using testosterone as substrate measured after 30 mins; format: ADME
Chain of Cytochrome P450 3A4 (P08684 whole entry): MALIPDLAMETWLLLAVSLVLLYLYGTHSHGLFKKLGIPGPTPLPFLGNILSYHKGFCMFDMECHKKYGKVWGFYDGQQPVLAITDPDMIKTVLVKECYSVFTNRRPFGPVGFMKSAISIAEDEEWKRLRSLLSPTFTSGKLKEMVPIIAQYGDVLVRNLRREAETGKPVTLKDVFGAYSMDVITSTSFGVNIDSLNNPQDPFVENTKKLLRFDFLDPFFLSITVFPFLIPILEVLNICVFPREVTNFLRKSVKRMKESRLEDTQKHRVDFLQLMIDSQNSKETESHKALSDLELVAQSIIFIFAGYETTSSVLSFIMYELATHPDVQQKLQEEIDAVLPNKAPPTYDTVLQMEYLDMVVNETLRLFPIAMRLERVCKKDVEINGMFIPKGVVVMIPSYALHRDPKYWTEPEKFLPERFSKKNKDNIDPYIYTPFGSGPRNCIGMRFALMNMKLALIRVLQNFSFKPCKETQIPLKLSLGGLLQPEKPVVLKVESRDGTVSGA

Question: With `Cc1cccnc1-c1ccc(-c2n[nH]c3ncc(-c4ccc5c(c4)CC[C@@H](N4C6COCC4C6)CC5)cc23)nc1` as the molecule, how does the pIC50 [1] read?
Answer: 8.74

Question: And the pIC50 [2]?
Answer: 7.16

Question: And the clearance [3]?
Answer: 0.65 L/h/kg

Question: And the inhibition at 0.5 h, 30 µM [4]?
Answer: 0%

Question: What about the pIC50 [5] of the same molecule?
Answer: 5.25
